# Measurements: patent US20030134420A1, “Methods and compositions for gene delivery” (priority 2000, published 2003)
# How the values were obtained:
# [1] = system: pCMVLuc luciferase expression per gram of liver; test: Luciferase expression in liver after tail vein injection of pCMVLuc polyplexes/formulants; conditions: mice; for Luciferase Average [pg./g liver]: 15 μg of DNA per injection
# [2] = Biodistribution and clearance of 125I-pCMVβGal; assay type: in vivo; conditions: mice
# Method: The biodistribution of ^125I-pCMV βGal was also studied in mice. Mice were injected with a dose of 300 μL containing 50 μg/mL of DNA. The distribution of free DNA, free DNA and TCDC, encapsulated in a polyplex comprised of block copolymer (PEG5k-b-(Cys-S—C18)10-b-(Lys)45) and the polyplex with TCDC were tested after 5 (FIG. 17A) and 60 (FIG. 17B) minutes. […] The clearance of ^125I-pCMVβGal was also studied using the ABC Polymer, (PEG5k-b-(Cys-S—C18)10-b-(Lys)45) (BP-A).
smiles,measurement,setting,value
C[C@H](CCC(=O)NCCCOCCOCCOCCCN)[C@H]1CC[C@H]2C3[C@H](O)C[C@@H]4C[C@H](O)CCC4(C)[C@H]3C[C@H](O)[C@]12C (stereo partly drawn),Luciferase Average [pg./g liver],[1]; formulant dose 0.10%,3964 pg./g liver
"C[C@H](CCC(=O)NCCC[N+](C)(C)CCCS(=O)(=O)[O-])[C@H]1CC[C@H]2[C@@H]3[C@H](O)C[C@@H]4C[C@H](O)CC[C@]4(C)[C@H]3C[C@H](O)[C@]12C.O [CHAPS, 3-[(3-Cholamidopropyl)dimethylammonio]1-propanesulfonate hydrate]",Luciferase Average [pg./g liver],[1]; formulant dose 0.50%,178 pg./g liver
C[C@H](CCC(=O)NCCC[N+](C)(C)CC(O)CS(=O)(=O)[O-])[C@H]1CC[C@H]2[C@@H]3[C@H](O)C[C@@H]4C[C@H](O)CC[C@]4(C)[C@H]3C[C@H](O)[C@]12C (stereo partly drawn) [CHAPSO],Luciferase Average [pg./g liver],[1]; formulant dose 0.50%,188 pg./g liver
CCCCCCC(=O)OC[C@H](COP(=O)([O-])OCC[N+](C)(C)C)OC(=O)CCCCCC [DHPC],Luciferase Average [pg./g liver],[1]; formulant dose 0.40%,470 pg./g liver
same,effect of addition of formulant on luciferase expression (FIG. 15),"[1]; 200 μL dose, 15 μg/mL pCMVLuc, Trigal copolymer polyplexes",greatly enhances the expression of luciferase
C[C@H](CCC(=O)N(CCCNC(=O)[C@H](O)[C@@H](O)[C@H](O)[C@H](O)CO)CCCNC(=O)[C@H](O)[C@@H](O)[C@H](O)[C@H](O)CO)[C@H]1CC[C@H]2[C@@H]3CC[C@@H]4C[C@H](O)CC[C@]4(C)[C@H]3C[C@H](O)[C@]12C [Deoxy BIGCHAP],Luciferase Average [pg./g liver],[1]; formulant dose 0.50%,129 pg./g liver
C[C@H](CCC(=O)NCCS(=O)(=O)[O-])[C@H]1CC[C@H]2[C@@H]3[C@@H](O)C[C@@H]4C[C@H](O)CC[C@]4(C)[C@H]3CC[C@]12C.[Na+] [TCDC],Luciferase Average [pg./g liver],[1]; formulant dose 0.50%,517 pg./g liver
same,biodistribution of 125I-pCMVβGal (FIG. 17),"[2]; 300 μL dose, 50 μg/mL DNA, BP-A polyplex with TCDC, 5 and 60 minutes",redirects the polyplex from the lungs and other organs to the blood
same,clearance / half-life of 125I-pCMVβGal DNA,"[2]; ABC Polymer (BP-A) polyplex, administration of TCDC",greatly enhanced the half-life of the DNA
